Experimental data published in PMC6992940 (Bone Reports, 2020).

Target: ERα (estrogen receptor alpha) (Homo sapiens, UniProt P03372)
Assay: fluorescence polarization competitor assay
Type: binding

Chain of ERα (estrogen receptor alpha) (P03372 whole entry): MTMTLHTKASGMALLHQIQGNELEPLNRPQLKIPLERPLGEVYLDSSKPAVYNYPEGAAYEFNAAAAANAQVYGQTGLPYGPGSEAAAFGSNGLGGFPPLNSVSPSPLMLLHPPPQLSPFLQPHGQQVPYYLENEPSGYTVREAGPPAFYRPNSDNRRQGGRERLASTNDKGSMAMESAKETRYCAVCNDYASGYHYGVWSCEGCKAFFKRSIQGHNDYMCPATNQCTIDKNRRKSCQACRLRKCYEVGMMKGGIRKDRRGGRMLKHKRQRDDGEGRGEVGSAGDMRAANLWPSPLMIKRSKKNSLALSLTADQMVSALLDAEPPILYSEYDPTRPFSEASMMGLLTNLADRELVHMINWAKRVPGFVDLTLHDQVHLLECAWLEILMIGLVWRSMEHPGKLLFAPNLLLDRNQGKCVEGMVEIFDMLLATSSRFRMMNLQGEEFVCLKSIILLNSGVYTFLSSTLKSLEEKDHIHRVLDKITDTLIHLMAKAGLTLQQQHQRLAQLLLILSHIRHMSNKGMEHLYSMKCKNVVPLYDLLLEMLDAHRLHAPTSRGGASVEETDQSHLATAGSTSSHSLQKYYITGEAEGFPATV

- IC50: 183 nM
Structure (SMILES): COc1ccc2c(C(=O)c3ccc(OCCN4CCCCC4)cc3)c(-c3ccc(O)cc3)sc2c1 [compound 2, (2-(4-hydroxyphenyl)-6-methoxybenzo[b]thiophen-3-yl)(4-(2-(piperidin-1-yl)ethoxy)phenyl)methanone]
